In a melting point compilation (Tetko et al.; mined from patent text by program, amines drawn as free bases though some values may be those of a salt) one finds melting point data, which are given here for 88 molecules.

`COc1cccc(CCNC(=O)N2CCC(Nc3ccc(CCNC[C@H](O)COc4ccc(O)cc4)cc3)CC2)c1` yielded a melting point of 103 to 108 °C. Take `CCOC(=O)C(CC)=C(C)NC(=O)Nc1cc(C(=O)OC(C)C)c(Cl)cc1F`: the melting point is 112 to 115 °C.

For the molecule `COC(=O)c1c(C(=O)OC)c(-c2ccccc2)c(C(=O)O)c(C(=O)O)c1-c1ccccc1`, the melting point lay within 196 to 198 °C.

Take `CNC(=O)c1cccc(NC(=O)Cc2cc(OC)cc(OC)c2)c1`: the melting point fell in the range of 146 to 147 °C. For `Cc1cc(-c2cccc(C(F)(F)F)c2)c2nc(C(F)(F)F)cnc2c1`, the melting point fell in the range of 117 to 118 °C. Molecule `Cc1ccc(S(=O)(=O)NC(=O)C2C(=O)CC3(CCCCC3)CC2=O)cc1` displayed a melting point of 150 to 152 °C. Regarding `O=c1c(Cl)c(-c2ccc(F)cc2)c1=O`, the melting point fell in the range of 113 to 115 °C. In the case of `COC(=O)c1nc(-c2ccc(Br)c(OC)c2F)cc(NC(C)=O)c1Cl` it was 164 to 165 °C. As for `COc1cccc(Cl)c1-c1cc2c(c3c1C(=O)NC3=O)c1cc(O)ccc1n2CCN1CCOCC1`, the melting point stood at 185 °C.

`COC(=O)c1ccc(OCC=O)cc1` yielded a melting point of 58 to 60 °C. In turn, `CN(C)c1ccc(NC(=O)c2cc3cc(C(F)(F)F)ccc3n2Cc2cccc(F)c2)cn1` gave a melting point of 192 to 193 °C. Consider `c1ccc(CN2CCN(c3nc4c(c(N5CCOCC5)n3)SCCC4)CC2)cc1`, for which the melting point was found to be 125 °C. On to `CN(C)c1ccc(C2(CNC(=O)Nc3c(F)cc(F)cc3CCc3cc(C(C)(C)C)c(O)c(C(C)(C)C)c3)CCCC2)cc1`, for which the melting point fell in the range of 165 to 166 °C. As for `CC(C)(COC(=O)OOC(=O)OCC(C)(C)c1ccccc1)c1ccccc1`, the melting point was in the range of 59 to 60 °C. In the case of `O=C1CCC(c2ccc(O)cc2)=NN1` it was 157 to 159 °C; in that of `COCNC(=O)ON=C1SCOC1C` (stereo not drawn), 78 to 79 °C; in that of `Cn1cc(C(=O)NCc2ccc(Cl)cc2)c(=O)c2cc(CO)ccc21`, 168 to 170 °C. Consider `CN(C(CCn1c(=O)cc(C(F)(F)F)[nH]c1=O)C(=O)NO)S(=O)(=O)c1ccc(Oc2cccc(Cl)c2)cc1` (stereo not drawn), for which the melting point fell in the range of 168 to 169 °C. In turn, `CN(C)CCc1c(C(=O)O)[nH]c2ccc(C[C@H]3COC(=O)N3)cc12` came in with a melting point of 230 °C. On to `Cc1cc(-c2ccc3c(=O)c(C(=O)O)cn(-c4ccc(F)cc4)c3c2)on1`, for which the melting point is 281 to 282 °C.

In turn, `CC(C)N1C(=O)CC(C(=O)O)C1c1ccccc1` (stereo not drawn) came in with a melting point of 126 to 134 °C. `Cc1cc(-n2nc(C(F)(F)F)cc2-c2ccc(S(C)(=O)=O)cc2)ccc1Cl` displayed a melting point of 152 to 154 °C. Regarding `Cc1cc(O)c(SCC(C)C)c(=O)o1`, the melting point lay within 106 to 108 °C. Regarding `CC(=NO)c1ccnc(Cl)c1`, the melting point worked out at 143 °C. In turn, `CS(=O)(=O)Nc1ccncc1-c1ccc2cnc(Nc3ccc(N4CCOCC4)cc3)nn12` showed a melting point of 178 to 180 °C. Take `CC1CN(Cc2ccccc2)Cc2cc(-c3ccccc3)n(Cc3ccccc3)c21` (stereo not drawn): the melting point was determined as 131 °C. The molecule `CC12CC(N3CCC4(CC3)OCCO4)C(O)CC1CCC1C2CCC2(C)C(O)C(N3CCC(O)CC3)CC12` (stereo not drawn) showed a melting point of 253 to 255 °C. As to `C/C=C/c1cc(OC)c2c(c1)[C@@H](C)[C@H](c1cc(CO)c(O)c(OC)c1)O2` (relative stereo), the melting point is 117 to 119 °C. Consider `COc1ccc2c(c1)c1c3c(c(-c4c(Cl)cccc4Cl)cc1n2CCO)C(=O)NC3=O`, for which the melting point was 229 to 231 °C. In turn, `CNS(=O)(=O)Oc1ccccc1OC` gave a melting point of 68 to 71 °C. In the case of `CCOCc1nc2c(N)nc3cc(-c4ccc(F)nc4)cnc3c2n1CC(C)(C)O`, the melting point was in the range of 218 to 220 °C. Molecule `Cc1nnc2ccc(-c3cccc(Cl)c3)nn12` came in with a melting point of 165 to 167 °C.

Consider `c1ccc(-c2ccc(COc3ccc4c(c3)CCC(CCn3ccnc3)C4)cc2)cc1` (stereo not drawn), for which the melting point lay within 145 to 146 °C. In the case of `CCN1CCc2ccc(Nc3ncc(C#N)c(Nc4ccccc4C(=O)NC)n3)cc2CC1` it was 164 to 170 °C.

On to `CCOC(=O)C(N=Nc1sc(C)c(C)c1C(=O)c1ccccc1)NC(=O)CCl` (stereo not drawn), for which the melting point was in the range of 123 to 125 °C. `CCCOc1ccc2c(c1)C(N(C)S(C)(=O)=O)=CC(C)(C)O2` came in with a melting point of 93 to 95 °C. On to `CCC(C(=O)OC1CC(=O)NC1=O)c1ccccc1` (stereo not drawn), for which the melting point is 96.5 to 97.5 °C.

On to `Cc1cc(C2=NOC(c3cc(Cl)cc(Cl)c3)(C(F)(F)F)C2)ccc1Br` (stereo not drawn), for which the melting point lay within 105 to 108 °C.

Turning to `CCC(=O)NCCC1=CCc2cc(F)c(OC)cc21`, the melting point was 140 to 143 °C. For `NC(=O)c1cc(=O)c(-c2ccccc2)co1`, the melting point fell in the range of 245 to 248 °C. Consider `CC(C)(C)C1(c2ccc(C(=O)O)cc2)OCCO1`, for which the melting point is 214 to 216 °C. For `C=CCNC(=S)Cc1ccccn1`, the melting point is 67 to 68 °C. With `CC1(CCC(O)(c2ccccc2)c2ccccc2)CCCCC12OCCO2` (stereo not drawn) the figure was 115 to 117 °C; with `NC(=O)CNC(=O)c1cc(Cl)nc(Cl)c1`, 211 to 213 °C. Consider `O=C1CC2c3ccccc3CCN2C2CCCC12` (stereo not drawn), for which the melting point fell in the range of 101 to 102 °C. In the case of `Cc1cccc(-n2cnc(OC(C)C(=O)O)n2)c1` (stereo not drawn) it was 155 to 157 °C; in that of `CNC(=O)c1cccc(Cl)c1Nc1nc(Nc2ccc3c(c2)CCCC(=O)N3CCOC)ncc1Cl`, 136 to 157 °C; in that of `COc1cc(O)cc2nc(-c3ccc(O)cc3)oc12`, 225 to 228 °C.

Regarding `COC(=O)C1=C(C)NC(C)=C(C(=O)OCCc2ccc(O)cc2)C1c1cccc([N+](=O)[O-])c1` (stereo not drawn), the melting point fell in the range of 107 to 109 °C. In the case of `CC(=Cc1ccc(F)cc1)CNC(=O)c1ccc(F)cc1` it was 107 to 109 °C. For the molecule `CS(=O)(=O)NC(=O)CCCCOc1cccc2occc12`, the melting point was 110 to 112 °C. On to `CC(C)N(CC1CCCCN1CCNC(=O)N1c2ccccc2C(=O)Nc2cccnc21)C(C)C` (stereo not drawn), for which the melting point lay within 181 to 182 °C. The molecule `C=CCOc1ccc(C[C@H](NC(=O)OC(C)(C)C)C(=O)N[C@H](C(=O)N[C@@H](CC=C)C(=O)OC)C(C)C)cc1` registered a melting point of 106 to 108 °C. With `Nc1nc2ccc(NC(=O)[C@@H]3CCCN3C(=O)[C@@H](Cc3ccccc3)NS(=O)(=O)Cc3ccccc3)cc2s1` the figure was 130 to 133 °C. For `CCCC(=O)c1cc2nc(C(=O)OCC)n(C)c2cc1C`, the melting point lay in the range of 106 to 108 °C.

Molecule `CCCC1(CCC)CCC2(CC1)CC(=O)OC(=O)C2` had a melting point of 91 to 93 °C. As to `O=S(=O)(c1cccs1)N(CC1CC1)c1cccc2cc(-c3ncc(CCl)s3)[nH]c12`, the melting point turned out to be 135 °C. `CS(=O)(=O)c1ccc(-c2cc(C#N)c(Br)nc2-c2ccc(F)cc2)cc1` registered a melting point of 230 to 232 °C. The molecule `Cc1ccc(S(=O)(=O)OC(C)(c2ccccc2)C(F)(F)F)cc1` (stereo not drawn) came in with a melting point of 102 °C.

`CCCCCCCCCCOCC(O)CO` (stereo not drawn): the melting point was in the range of 38.5 to 39 °C.

For `Cc1cc(C2=NOC(c3cc(Cl)cc(Cl)c3)(C(F)(F)F)C2)ccc1C(=O)Nc1ncc(Cl)cn1` (stereo not drawn), the melting point was in the range of 137 to 141 °C. `O=[N+]([O-])c1ccc(OCCN2CC=C(c3ccc(F)cc3)CC2)cc1` gave a melting point of 104 to 107 °C.

In the case of `O=C(O)c1[nH]c2cc(Cl)cc(Cl)c2c1C=C1NC(=O)N(c2ccccc2)C1=O`, the melting point was over 250 °C. In turn, `Cc1ccc(C(=O)N(C(C)C)C(C)C)c(C(=O)O)c1F` came in with a melting point of 147 to 149 °C. Molecule `COC(=O)c1nc(-c2ccc(C)c(OC)c2F)cc(N)c1Cl` registered a melting point of 95 to 96 °C. As for `COC(=O)[C@H](Cc1ccc(NC(=O)c2c(C)cccc2Cl)cc1)NC(=O)OC(C)(C)C`, the melting point was 154 to 157 °C. `O=C(NC(=O)c1ccccc1Cl)Nc1ccc(-c2ccc(Cl)cc2)cn1` returned a melting point of 228 to 231 °C.

The molecule `O=C1NCCN(CC(=O)N2CCOCC2)C1c1cccs1` (stereo not drawn) displayed a melting point of 190 to 193 °C. For the molecule `COc1cc(C(=O)c2ccccc2F)ccc1OCc1ccccc1`, the melting point lay within 118 to 120 °C. With `CC(C)(CO)c1cc(NC(=O)C(C)(C)S(=O)(=O)CCC(F)(F)F)on1` the figure was 162 to 163 °C; with `CCNc1c(C(=O)OCC)c(=O)n(CC)c2nc(C)ccc12`, 133 to 136 °C. Turning to `COc1ccc(NC(C)=O)cc1NC(=O)NC(=O)c1cc(F)c(F)cc1Cl`, the melting point fell in the range of 225 to 228 °C. Take `Cc1nc[nH]c1C(=O)OC(C)C`: the melting point is 188 to 190 °C.

For `Cc1ccc(C(C)(C)C)c(O)c1C(=O)Oc1ccccc1`, the melting point fell in the range of 71 to 72 °C.

With `O=C(CC[C@H]1CC[C@H](Nc2ncc3ncnc(Nc4ccc(F)c(Cl)c4)c3n2)CC1)N1CCCC1`, the melting point was in the range of 187 to 192 °C.

`Nc1c2c(nc3ccccc13)CCCC2N1CCCC1` (stereo not drawn) showed a melting point of 201 to 203 °C. For `Cc1ccc([N+](=O)[O-])cc1Nc1nccc(-c2cccnc2)n1`, the melting point was in the range of 186 to 188 °C. In the case of `CCOC(=O)C1=Cc2cc(Cl)c(F)cc2OC1C(F)(F)F` (stereo not drawn), the melting point lay in the range of 97.6 to 98.6 °C. On to `CC1(CS)C(=O)N2CCCC(C(=O)O)N2C1=O` (stereo not drawn), for which the melting point was 209 to 211 °C.

Molecule `CC(C)(C)Nc1c(NCc2cc(Cl)ccc2Cl)c(=O)c1=O` had a melting point of 236 °C. For the molecule `CCCc1c(C(=O)C(C)C)c2ccc(CC(N)=O)cc2n1Cc1cc2c(cc1Cl)OCO2`, the melting point was 136 to 138 °C. The molecule `c1cc(Sc2cccc3cnccc23)c2ccncc2c1` had a melting point of 138 to 140 °C. With `O=[N+]([O-])c1cc2nccnc2cc1Sc1cccc2cnccc12`, the melting point was in the range of 222 to 225 °C.

`Cc1cc(C(C)N(O)C(N)=O)c(C)o1` (stereo not drawn) came in with a melting point of 145 to 146 °C. In turn, `COc1cc(N2CCCN(C)CC2)ccc1Nc1ncc2ccc(-c3ccccc3OC)n2n1` came in with a melting point of 69 to 77 °C. With `C=Cc1c(N)cc(Cl)nc1C(=O)OC` the figure was 53 to 54 °C; with `C=Cc1ccc2c(c1)c(=O)c(C(=O)NCc1ccc(Cl)cc1)cn2C`, 193 to 196 °C; with `N#Cc1ccc(NC(=O)c2ccc(S(=O)(=O)N3CCc4cc(Cl)ccc43)cc2)c(-c2n[nH]c(=O)o2)c1`, 262 to 264 °C.

The melting point is the temperature, or range, at which the solid turns liquid.
